Results as given in publication PMC11845331, “Teicoplanin pharmacokinetics in critically ill patients on extracorporeal organ support: a retrospective analysis” (Intensive Care Medicine Experimental, 2025).

Legend:
[1] = Teicoplanin plasma trough levels (TCtrough) from therapeutic drug monitoring during ECMO support; type: in vivo, human
Text: This single-center retrospective study included critically ill, adult (> 18 years old) patients hospitalized at the tertiary intensive care unit (ICU) of the University Hospital Zurich, Switzerland, an academic teaching hospital. The local ICU provides care for patients from all medical and surgical fields. All patients undergoing extracorporeal membrane oxygenation (ECMO) support and intravenous teicoplanin treatment were eligible for study inclusion from 1.1.2010 to 19.07.2023. Patients were included irrespective of the admitting diagnosis and independent of the ECMO configuration (veno-venous, veno-arterial or others with, e.g., multiple cannulation sites). Patients aged < 18 years were excluded. Other exclusion criteria were documented verbal or written refusal to participate in this study. Patients were also excluded if teicoplanin was not administered for any portion of the ECMO treatment period (e.g., if given only before or after the ECMO treatment period) or if no trough levels were obtained during ECMO support.
Data were collected with the use of two in-hospital electronic medical records databases, the KISIM (Cistec AG, Zurich, Switzerland) and the Patient Data Management System (PDMS) MetaVision (iMDsoft, Dusseldorf, Germany). Collected data included baseline demographic data (including age, gender and body mass index), comorbidities (including cardiovascular conditions, pulmonary diseases, renal insufficiency) and immunosuppression (including patients with prior organ transplantation), ICU admitting diagnoses, and the indication for teicoplanin treatment (empiric vs. targeted). Moreover, ICU treatment modalities and scores (e.g., organ support and scores such as the Sequential Organ Failure Assessment Score SOFA and the Simplified Acute Physiology Score SAPS II) and patient outcomes (including ICU length of stay and survival) were gathered. Teicoplanin trough levels and dosages over time were obtained from the medical records (see below).
In our hospital, intravenous teicoplanin is normally administered for empiric or targeted coverage of Gram-positive microorganisms. The standard loading dose is 400 mg infused at 0 h, 12 h and 24 h. Thereafter, 400 mg are administered every 24 h. Measurement of teicoplanin trough levels (TCtrough) is recommended prior to the fifth dose and this also applies to dose adjustments. In case of renal impairment, TCtrough levels are recommended to be measured prior to the second dose, in order to detect potential overdosing early. If the estimated glomerular filtration rate (eGFR) is subnormal, teicoplanin starting dosage is adjusted (eGFR 40–60 ml/min: 200 mg/24 h, eGFR < 40 ml/min: 100 mg/24 h).
In case the patient is undergoing continuous renal replacement therapy, 200–400 mg teicoplanin every 24 h are recommended. In general, TCtrough of 10–30 mg/l are targeted. TCtrough < 10 mg/l are considered insufficient, whereas TCtrough > 30 mg/l are considered toxic. In case TCtrough are not within the target ranges, dose adaptations can be prescribed by the clinicians in charge. In case a measured TCtrough is toxic (i.e., > 30 mg/l), no more teicoplanin is administered, however TCtrough are measured on a daily basis. […] After increasing the dose, subsequent teicoplanin levels are again measured prior to the fifth dose or prior to the second dose in case of renal impairment, respectively. […]

[2] = Adverse reactions to teicoplanin in critically ill patients on ECMO; type: in vivo, human; settings: all 23 included patients on ECMO, i.v. teicoplanin
Text: The primary outcome of this study was the proportion of patients with insufficient or toxic TCtrough during ECMO support. Secondary outcomes included the observed TCtrough and teicoplanin dosages over time during ECMO support and dependent on the presence of continuous renal replacement therapy (CRRT), as well as the occurrence of side effects (such as hemotoxicity, hepatotoxicity or skin changes) leading to discontinuation of teicoplanin treatment.

[3] = cited from earlier work
Text: Recently, more attention has been drawn to antimicrobial serum levels and dosing in patients receiving ECMO treatment. While marked concentration variability during ECMO treatment has been observed for many common antimicrobials used in the ICU including meropenem, cefepime, ceftriaxone, piperacillin or vancomycin [14], data for teicoplanin are scarce so far.

[4] = human, in vivo; cited from earlier work
Procedure: Chen et al. focused on the effect of applying high loading doses in 11 patients receiving veno-arterial ECMO treatment. In their study, four loading doses greater than 10 mg/kg were applied within the first 72 h. Before the application of the maintenance dose, the authors reported adequate therapeutic TCtrough for severe infections in more than 90% of patients. In our study, the loading dose of 400 mg was markedly lower, which presumably might have contributed to our observed low TCtrough in a significant proportion of patients particularly during the first days of ECMO su ...

Teicoplanin
TCtrough mean difference, ECMO alone vs ECMO and CRRT ([1]; 95% CI 6–13, p < 0.0001): 9 mg/L | Influence of ECMO circuit configuration (veno-venous vs. veno-arterial) on TCtrough over time ([1]; Fig. 3): did not have a significant influence | TCtrough in patients with ECMO and CRRT ([1]; critically ill adult ICU patients, i.v. teicoplanin, plasma trough level, ECMO plus continuous renal replacement therapy, median [IQR 5–16]): 9 mg/L | TCtrough in patients with ECMO treatment alone ([1]; critically ill adult ICU patients, i.v. teicoplanin, plasma trough level, ECMO without CRRT, median [IQR 12–24 mg/l]): 18 mg/L | TCtrough mean difference in relation to oxygenator changes (pre vs. post) ([1]; five cases with available data, 95% CI –12 to 15, p = 0.8108): 1.5 mg/L | Drug reactions or other adverse reactions to teicoplanin [2]: no drug reactions or other adverse reactions to teicoplanin were observed | Loss of teicoplanin within the ECMO circuit ([3]; ex vivo blood-primed ECMO circuits): significant loss of teicoplanin | Lowering of central volume of distribution with ECMO treatment ([3]; population pharmacokinetic model, 10 adult ECMO patients): 34% | Proportion of patients with adequate therapeutic TCtrough for severe infections before the maintenance dose [4]: more than 90%
